The record followed here is patent US8580794B2 (AbbVie Inc., priority 2009, dated 2013).

Some results are limits rather than exact numbers.

The target in the assay is GST-Bc1-2 (Homo sapiens, UniProt P10415). As to the kind of experiment: Time Resolved-Fluorescence Resonance Energy Transfer (TR-FRET) Bcl-2 binding assay with F-Bak peptide probe. To be noted: GST-Bcl-2 1 nM, F-Bak probe 100 nM, Tb-anti-GST 1 nM; '<' = below limit of detection; read-out: TR-FRET Bcl-2 Binding Ki. A general note: TR-FRET usually uses a lanthanide donor and a delayed reading to cut background.
Sequence of GST-Bc1-2 (P10415 whole entry): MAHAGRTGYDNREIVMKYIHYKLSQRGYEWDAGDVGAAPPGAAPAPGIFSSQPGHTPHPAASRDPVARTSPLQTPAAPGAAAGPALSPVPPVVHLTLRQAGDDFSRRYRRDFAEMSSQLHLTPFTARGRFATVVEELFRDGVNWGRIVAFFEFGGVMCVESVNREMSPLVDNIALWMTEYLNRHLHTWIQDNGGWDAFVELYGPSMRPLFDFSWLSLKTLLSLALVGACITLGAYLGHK

Take `CC(=O)N1CCOC(CNc2ccc(S(=O)(=O)NC(=O)c3ccc(N4CCN(CC5=C(c6ccc(Cl)cc6)CC(C)(C)CC5)CC4)cc3Oc3cnc4[nH]ccc4c3)cc2[N+](=O)[O-])C1` (stereo not shown) [Example 136, N-[(4-{[(4-acetylmorpholin-2-yl)methyl]amino}-3-nitrophenyl)sulfonyl]-4-(4-{[2-(4-chlorophenyl)-4,4-dimethylcyclohex-1-en-1-yl]methyl}piperazin-1-yl)-2-(1H-pyrrolo[2,3-b]pyridin-5-yloxy)benzamide]: the Ki (usually a measure of affinity in units of concentration, obtained from inhibition or displacement) was below 0.01 nM.
For `CC1(C)CCC(CN2CCN(c3ccc(C(=O)NS(=O)(=O)c4ccc(NCC5(F)CCOCC5)c([N+](=O)[O-])c4)c(Oc4cnc5[nH]ccc5c4)c3)CC2)=C(c2ccc(Cl)cc2)C1` [Example 138, 4-(4-{[2-(4-chlorophenyl)-4,4-dimethylcyclohex-1-en-1-yl]methyl}piperazin-1-yl)-N-[(4-{[(4-fluorotetrahydro-2H-pyran-4-yl)methyl]amino}-3-nitrophenyl)sulfonyl]-2-(1H-pyrrolo[2,3-b]pyridin-5-yloxy)benzamide] the value was below 0.01 nM; for `CC1(C)CCC(CN2CCN(c3ccc(C(=O)NS(=O)(=O)c4ccc(NC5CCN(C6COC6)CC5)c([N+](=O)[O-])c4)c(Oc4cnc5[nH]ccc5c4)c3)CC2)=C(c2ccc(Cl)cc2)C1` [Example 139, 4-(4-{[2-(4-chlorophenyl)-4,4-dimethylcyclohex-1-en-1-yl]methyl}piperazin-1-yl)-N-({3-nitro-4-[(1-oxetan-3-ylpiperidin-4-yl)amino]phenyl}sulfonyl)-2-(1H-pyrrolo[2,3-b]pyridin-5-yloxy)benzamide], below 0.01 nM; for `CC1(C)CCC(CN2CCN(c3ccc(C(=O)NS(=O)(=O)c4ccc(NC5CCN(C6CCC6)CC5)c([N+](=O)[O-])c4)c(Oc4cnc5[nH]ccc5c4)c3)CC2)=C(c2ccc(Cl)cc2)C1` [Example 140, 4-(4-{[2-(4-chlorophenyl)-4,4-dimethylcyclohex-1-en-1-yl]methyl}piperazin-1-yl)-N-({4-[(1-cyclobutylpiperidin-4-yl)amino]-3-nitrophenyl}sulfonyl)-2-(1H-pyrrolo[2,3-b]pyridin-5-yloxy)benzamide], below 0.01 nM.
Turning to `CC1(C)CCC(CN2CCN(c3ccc(C(=O)NS(=O)(=O)c4ccc(NC5CCN(C6CCOC(C)(C)C6)CC5)c([N+](=O)[O-])c4)c(Oc4cnc5[nH]ccc5c4)c3)CC2)=C(c2ccc(Cl)cc2)C1` (stereo not shown) [Example 141, 4-(4-{[2-(4-chlorophenyl)-4,4-dimethylcyclohex-1-en-1-yl]methyl}piperazin-1-yl)-N-[(4-{[1-(2,2-dimethyltetrahydro-2H-pyran-4-yl)piperidin-4-yl]amino}-3-nitrophenyl)sulfonyl]-2-(1H-pyrrolo[2,3-b]pyridin-5-yloxy)benzamide], the Ki is below 0.01 nM.
As for `CC1(C)CCC(CN2CCN(c3ccc(C(=O)NS(=O)(=O)c4ccc(N[C@H]5CCN(C6CC6)C5)c([N+](=O)[O-])c4)c(Oc4cnc5[nH]ccc5c4)c3)CC2)=C(c2ccc(Cl)cc2)C1` [Example 142, 4-(4-{[2-(4-chlorophenyl)-4,4-dimethylcyclohex-1-en-1-yl]methyl}piperazin-1-yl)-N-[(4-{[(3S)-1-cyclopropylpyrrolidin-3-yl]amino}-3-nitrophenyl)sulfonyl]-2-(1H-pyrrolo[2,3-b]pyridin-5-yloxy)benzamide], the inhibitory constant (Ki) came to 0.13 nM.
For `CC1(C)CCC(CN2CCN(c3ccc(C(=O)NS(=O)(=O)c4ccc(NC5CCN(C6CCOC6)CC5)c([N+](=O)[O-])c4)c(Oc4cnc5[nH]ccc5c4)c3)CC2)=C(c2ccc(Cl)cc2)C1` (stereo not shown) [Example 143, 4-(4-{[2-(4-chlorophenyl)-4,4-dimethylcyclohex-1-en-1-yl]methyl}piperazin-1-yl)-N-({3-nitro-4-[(1-tetrahydrofuran-3-ylpiperidin-4-yl)amino]phenyl}sulfonyl)-2-(1H-pyrrolo[2,3-b]pyridin-5-yloxy)benzamide], the Ki is below 0.01 nM.
